In publication PMC4331650 (Biochimica et Biophysica Acta, 2014):

Biological target: T1, F256A CLC-Ka/barttin (Homo sapiens, UniProt P51800, F256A)
T1 sequence (P51800 1-687 F256A): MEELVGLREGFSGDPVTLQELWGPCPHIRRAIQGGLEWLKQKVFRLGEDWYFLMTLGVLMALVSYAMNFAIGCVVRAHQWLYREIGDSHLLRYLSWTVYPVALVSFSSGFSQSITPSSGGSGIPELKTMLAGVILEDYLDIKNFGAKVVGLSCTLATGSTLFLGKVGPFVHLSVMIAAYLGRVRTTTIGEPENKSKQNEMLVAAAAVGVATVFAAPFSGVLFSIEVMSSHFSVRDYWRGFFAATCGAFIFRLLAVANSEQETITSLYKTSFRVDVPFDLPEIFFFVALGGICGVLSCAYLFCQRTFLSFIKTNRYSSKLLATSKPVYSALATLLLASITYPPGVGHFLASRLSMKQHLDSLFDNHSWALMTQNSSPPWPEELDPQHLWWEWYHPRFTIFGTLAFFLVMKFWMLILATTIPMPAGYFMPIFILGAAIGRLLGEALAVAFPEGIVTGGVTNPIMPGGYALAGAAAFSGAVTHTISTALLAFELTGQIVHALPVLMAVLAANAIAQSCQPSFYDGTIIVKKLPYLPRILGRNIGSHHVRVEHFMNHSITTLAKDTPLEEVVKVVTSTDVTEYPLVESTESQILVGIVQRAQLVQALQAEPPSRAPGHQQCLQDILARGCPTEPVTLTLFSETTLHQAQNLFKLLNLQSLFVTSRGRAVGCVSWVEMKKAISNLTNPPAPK
T1 sequence (Q8WZ55 1-320 partner): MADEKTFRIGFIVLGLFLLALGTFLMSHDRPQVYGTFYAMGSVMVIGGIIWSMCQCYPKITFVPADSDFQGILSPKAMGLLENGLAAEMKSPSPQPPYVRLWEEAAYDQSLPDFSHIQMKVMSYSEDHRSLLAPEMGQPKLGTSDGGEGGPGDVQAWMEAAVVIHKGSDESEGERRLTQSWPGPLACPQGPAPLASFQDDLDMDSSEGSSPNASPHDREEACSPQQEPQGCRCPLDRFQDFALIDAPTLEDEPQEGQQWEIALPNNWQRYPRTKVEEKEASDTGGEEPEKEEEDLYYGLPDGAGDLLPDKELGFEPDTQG
Assay: NFA effect on F256A CLC-Ka/barttin, whole-cell patch clamp in HEK293 cells
Assay type: cell-based

effect of NFA on currents (20 μM NFA): increased | effect of NFA on currents (500 μM NFA): inhibited | [NFA]ext up to which potentiation is seen (inhibition at higher [NFA]ext): up to 200 μM
Structure (SMILES): O=C(O)c1cccnc1Nc1cccc(C(F)(F)F)c1 [NFA, niflumic acid]
